# Experimental data as given in ChEMBL document CHEMBL5338708, “Bis-chalcone polyphenols with potential preventive and therapeutic effects on PD: Design, synthesis and in vitro disaggregation activity against α-synuclein oligomers and fibrils” (Eur J Med Chem, 2022).
# How the values were obtained:
# Alpha-synuclein = Alpha-synuclein (Homo sapiens, UniProt P37840); experiment: Inhibition of recombinant human Alpha-synuclein aggregation expressed in Escherichia coli incubated for 72 hrs by ThT fluorescence assay
# [1] = Apparent permeability across apical to basolateral side in MDCKII-MDR1 cells at 10 uM by LC-MS/MS analysis; assay type: ADME, cell-based, Canis lupus familiaris; conditions: dog, MDCK-MDR1
# [2] = Apparent permeability across basolateral to apical side in MDCKII-MDR1 cells at 10 uM by LC-MS/MS analysis; assay type: ADME, cell-based, Canis lupus familiaris; conditions: dog, MDCK-MDR1
# [3] = Efflux ratio of apparent permeability from basolateral to apical side over apical to basolateral side in […] cells at 10 uM by LC-MS/MS analysis; assay type: ADME, cell-based, Canis lupus familiaris; conditions: dog, MDCK-MDR1
Papp A→B at 10 µM [1] [×10⁻⁶ cm/s],Papp B→A at 10 µM [2] [×10⁻⁶ cm/s],efflux ratio at 10 µM [3],SMILES,IC50 (Alpha-synuclein) [nM]
,,,O=C(O[C@@H]1Cc2c(O)cc(O)cc2O[C@H]1c1cc(O)c(O)c(O)c1)c1cc(O)c(O)c(O)c1 [GALLOCATECHIN GALLATE],1060
16.2,74.7,,O=C(/C=C/c1ccc(/C=C/C(=O)c2ccc(O)c(O)c2)cc1)c1ccc(O)c(O)c1,
13.5,96,,COc1cc(/C=C/C(=O)c2ccc(O)c(O)c2)c(OC)cc1/C=C/C(=O)c1ccc(O)c(O)c1,
7.71,93.2,,COc1cc(/C=C/C(=O)c2cc(O)cc(O)c2)c(OC)cc1/C=C/C(=O)c1cc(O)cc(O)c1,
36.5,97,2.66,CC(C)NCC(O)COc1cccc2ccccc12 (configuration not stated) [PROPRANOLOL],
11.4,95.6,,O=C(/C=C/c1ccc(/C=C/C(=O)c2ccc(O)c(F)c2)cc1)c1ccc(O)c(F)c1,
